Holding throughout (type): cell-based
Experiment [1] has as its target T1, hTLR8 (human Toll-like receptor 8) (Homo sapiens, UniProt Q9NR97).
T1 construct: host or cells: HEK-Blue hTLR8 (HEK293-derived reporter cells)
T1 sequence (Q9NR97 27-1041): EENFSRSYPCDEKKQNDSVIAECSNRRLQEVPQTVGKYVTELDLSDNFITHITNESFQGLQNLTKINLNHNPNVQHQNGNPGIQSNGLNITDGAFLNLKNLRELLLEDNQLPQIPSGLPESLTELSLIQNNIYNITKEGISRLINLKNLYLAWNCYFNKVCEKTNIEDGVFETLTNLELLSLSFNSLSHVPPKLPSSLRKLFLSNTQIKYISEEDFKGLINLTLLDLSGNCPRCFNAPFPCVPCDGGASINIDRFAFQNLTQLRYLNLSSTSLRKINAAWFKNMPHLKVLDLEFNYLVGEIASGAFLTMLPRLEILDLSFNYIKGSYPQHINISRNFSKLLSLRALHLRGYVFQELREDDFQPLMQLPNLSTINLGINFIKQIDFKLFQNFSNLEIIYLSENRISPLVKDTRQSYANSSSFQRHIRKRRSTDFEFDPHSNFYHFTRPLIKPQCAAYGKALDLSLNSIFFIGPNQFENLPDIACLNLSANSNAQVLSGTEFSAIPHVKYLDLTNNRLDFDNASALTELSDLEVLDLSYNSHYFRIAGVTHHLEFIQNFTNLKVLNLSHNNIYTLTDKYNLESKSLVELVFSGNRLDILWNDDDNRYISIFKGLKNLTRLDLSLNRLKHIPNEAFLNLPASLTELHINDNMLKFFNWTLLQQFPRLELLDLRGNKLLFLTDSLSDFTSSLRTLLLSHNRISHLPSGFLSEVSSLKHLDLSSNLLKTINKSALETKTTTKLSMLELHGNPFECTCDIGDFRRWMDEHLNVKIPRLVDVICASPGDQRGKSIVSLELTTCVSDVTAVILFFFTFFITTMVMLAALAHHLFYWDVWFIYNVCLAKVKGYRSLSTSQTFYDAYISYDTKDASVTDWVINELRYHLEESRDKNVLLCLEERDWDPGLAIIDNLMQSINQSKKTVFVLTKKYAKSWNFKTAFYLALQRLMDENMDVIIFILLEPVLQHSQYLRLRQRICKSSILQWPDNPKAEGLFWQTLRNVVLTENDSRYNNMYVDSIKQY
As to the kind of experiment: hTLR8 cell assay (HEK-Blue hTLR8 reporter cells). The settings on record: 24 hours, OD 650 nm. Here is the method: (§1) The payload compounds of Formula (II′) were assayed to evaluate their agonistic activity on hTLR7 (human Toll-like receptor 7) and hTLR8 (human Toll-like receptor 8). Reporter cells lines (HEK-Blue hTLR7 and HEK-Blue hTLR8) were obtained from InvivoGen. Cells were cryopreserved in liquid nitrogen per supplier's instruction. Upon test, the cells were thawed, passaged and cultured in the growth media of DMEM supplemented with 10% fetal bovine serum, 1×NEAA, 1 mM Pyruvate, 2 mM glutamine, […] in the presence of the following antibiotics, as shown as Table 1. Test compounds (at desired concentrations diluted) were added to the 96-well assay plate, 0.5 μL per well. Reporter cells were harvested from the tissue culture flasks by incubation in PBS at 37° C. for two minutes after the media in the flask is removed and cells rinsed with PBS. Cells were counted and diluted in the HEK-Blue Detection media at 50000 cells/mL and incubated for 24 hours at 37° C., in a 5% CO2 humidified incubator. Then 20 μL of cell supernatant were added to the assay plate containing the 180 µL of QUANTI-Blue, incubated for 1 hour at 37° C. Optical density at 650 nm was analyzed using an Envision (Perkin Elmer) plate reader.

In experiment [2] the target is T2, hTLR7 (human Toll-like receptor 7) (Homo sapiens, UniProt Q9NYK1).
T2 construct: host or cells: HEK-Blue hTLR7 (HEK293-derived reporter cells)
T2 sequence (Q9NYK1 27-1049): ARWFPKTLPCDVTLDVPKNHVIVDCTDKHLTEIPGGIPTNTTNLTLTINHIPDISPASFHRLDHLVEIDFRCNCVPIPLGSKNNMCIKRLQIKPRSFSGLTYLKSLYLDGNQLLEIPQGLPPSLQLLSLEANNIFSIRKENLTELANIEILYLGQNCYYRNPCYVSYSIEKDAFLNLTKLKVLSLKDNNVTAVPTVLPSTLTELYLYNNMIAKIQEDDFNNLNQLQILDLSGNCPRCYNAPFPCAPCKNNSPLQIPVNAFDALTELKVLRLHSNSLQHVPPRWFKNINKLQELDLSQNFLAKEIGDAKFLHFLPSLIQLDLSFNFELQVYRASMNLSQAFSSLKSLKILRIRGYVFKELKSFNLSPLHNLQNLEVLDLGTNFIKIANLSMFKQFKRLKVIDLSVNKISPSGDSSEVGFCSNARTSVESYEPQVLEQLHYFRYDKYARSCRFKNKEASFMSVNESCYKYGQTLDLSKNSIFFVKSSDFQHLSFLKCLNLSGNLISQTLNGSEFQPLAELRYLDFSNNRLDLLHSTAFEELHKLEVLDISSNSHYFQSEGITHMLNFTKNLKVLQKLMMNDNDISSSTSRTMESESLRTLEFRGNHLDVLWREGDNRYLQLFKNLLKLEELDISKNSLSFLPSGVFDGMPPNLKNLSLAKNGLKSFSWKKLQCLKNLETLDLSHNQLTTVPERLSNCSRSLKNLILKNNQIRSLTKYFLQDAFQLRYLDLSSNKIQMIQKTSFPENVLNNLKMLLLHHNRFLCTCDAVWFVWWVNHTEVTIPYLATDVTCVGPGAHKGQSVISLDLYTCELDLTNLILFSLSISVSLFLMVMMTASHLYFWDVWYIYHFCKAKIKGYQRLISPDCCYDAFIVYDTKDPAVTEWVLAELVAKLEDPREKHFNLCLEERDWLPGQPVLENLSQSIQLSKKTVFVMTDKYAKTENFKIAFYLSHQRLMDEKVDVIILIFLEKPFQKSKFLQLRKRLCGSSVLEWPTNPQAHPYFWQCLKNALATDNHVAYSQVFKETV
The experiment can be described thus: hTLR7 cell assay (HEK-Blue hTLR7 reporter cells). Particulars: 24 hours, OD 650 nm. On the procedure: as §1

For experiment [3], the system named is human PBMC (human peripheral blood mononuclear cells). The experiment can be described thus: PBMC screening assay: induction of TNF-α production. Particulars: read-out: EC50 (μM) TNF-α (hPBMC). Here is the method:
The payload compounds of Formula (II′) were assayed to evaluate the induction of TNF-α production in human PBMC (human peripheral blood mononuclear cells).
Human peripheral blood mononuclear cells (PBMC) were obtained from Allcells. […] PBMC were incubated for 24 hours at 37° C. in a 5% CO2 humidified incubator. The following day PBMC plates were centrifuged at 500×g for 5 minutes and the growth media was removed. 200 μL of compound prepared in growth media at a series of diluted concentrations ranging from 2.54 nM to 50 μM were added to PBMC in duplicate and incubated for 24 hours at 37° C. in a 5% CO2 incubator. Prior to supernatant harvest, cells were spun at 500×g for 5 minutes to remove cell debris. TNF-α activity was assessed in the supernatant by ELISA (Elabscience) per the manufacturer's instructions. Optical density at 450 nm (ELISA) was analyzed using a plate reader.

The mark [4] stands for this setting: human PBMC, 24 hours, TNF-α by ELISA, class symbols.

This passage reports EC50 results from patent US20250325687A1, “CONJUGATE COMPRISING TOLL-LIKE RECEPTOR AGONIST” (MABSOFT THERAPEUTICS (SHANGHAI) CO., LTD., priority 2022, published 2025).

pEC50: −log10 of the molar value. Where two headings read alike, the source gives them in different places. Bounds are passed on as bounds.

Consider `CCOCc1nc2c(N)nc3cc(Cc4ccc(CCN)cc4)ccc3c2n1CC(C)(C)O` [Compound 2, 1-(4-amino-7-(4-(2-aminoethyl)benzyl)-2-(ethoxymethyl)-1H-imidazo[4,5-c]quinolin-1-yl)-2-methylpropan-2-ol], for which the negative logarithm of the EC50 (pEC50) (usually the EC50 on a negative log10 scale, so that one unit is a factor of ten) in experiment [1] is 4.70 to 5.30; in experiment [2] it was 5.00 to 6.00. Further, the EC50 (usually the concentration needed to bring the measured effect to its halfway point) in experiment [3] (Homo sapiens, PBMC, 24 h) is greater than 0.64 µM.
Take `CCOCc1nc2c(N)nc3cc(Cc4ccc(CCCN)cc4)ccc3c2n1CC(C)(C)O` [Compound 3, 1-(4-amino-7-(4-(3-aminopropyl)benzyl)-2-(ethoxymethyl)-1H-imidazo[4,5-c]quinolin-1-yl)-2-methylpropan-2-ol]: the pEC50 was 4.70 to 5.30 in experiment [1] and 5.00 to 6.00 in experiment [2]. Moreover, the concentration for a half-maximal effect (EC50) in experiment [3] (Homo sapiens, PBMC, 24 h) is greater than 0.64 µM.
`CCOCc1nc2c(N)nc3cc(Cc4ccccc4)ccc3c2n1CC(C)(C)N` [Compound 38, 1-(2-amino-2-methylpropyl)-7-benzyl-2-(ethoxymethyl)-1H-imidazo[4,5-c]quinolin-4-amine]: the pEC50 in experiment [1] is less than 4.70; in experiment [2], less than 5.00.
With `CCOCc1nc2c(N)nc3cc(Cc4ccccc4)ccc3c2n1CCCCN` [Compound 39, 1-(4-aminobutyl)-7-benzyl-2-(ethoxymethyl)-1H-imidazo[4,5-c]quinolin-4-amine], the results for the pEC50 in experiment [1] and in experiment [2] were 4.70 to 5.30 and less than 5.00, respectively.
Take `CCOCc1nc2c(N)nc3cc(Cc4ccccc4)ccc3c2n1CC1CC(CN)C1` (stereo not shown) [Compound 40, 1-((3-(aminomethyl)cyclobutyl)methyl)-7-benzyl-2-(ethoxymethyl)-1H-imidazo[4,5-c]quinolin-4-amine]: the values for the pEC50 in experiment [1] and in experiment [2] were less than 4.70 and 5.00 to 6.00, respectively.
On to `CCCC(C)c1nc2c(N)nc3cc(Cc4ccc(CCN)cc4)ccc3c2n1Cc1ccccc1` (stereo not shown) [Compound 41, 7-(4-(2-aminoethyl)benzyl)-1-benzyl-2-(pentan-2-yl)-1H-imidazo[4,5-c]quinolin-4-amine], for which the pEC50 in experiment [1] was 4.70 to 5.30; in experiment [2], 5.00 to 6.00.
In the same order, the values of `CCCC(C)c1nc2c(N)nc3cc(Cc4ccccc4)ccc3c2n1Cc1ccc(CN)cc1` (stereo not shown) [Compound 42, 1-(4-(aminomethyl)benzyl)-7-benzyl-2-(pentan-2-yl)-1H-imidazo[4,5-c]quinolin-4-amine] are greater than 5.30 and 5.00 to 6.00.
On to `CCOCc1nc2c(N)nc3cc(Cc4ccccc4)ccc3c2n1Cc1ccc(CN)cc1` [Compound 43], for which the pEC50 in experiment [1] is 4.70 to 5.30; in experiment [2] it was greater than 6.00.
In the same order, the values of `CCOCc1nc2c(N)nc3cc(Cc4ccc(CCN)cc4)ccc3c2n1Cc1ccc(CO)cc1` [Compound 45, (4-((4-amino-7-(4-(2-aminoethyl)benzyl)-2-(ethoxymethyl)-1H-imidazo[4,5-c]quinolin-1-yl)methyl)phenyl) methanol] are less than 4.70 and 5.00 to 6.00.
For the compound `CCOCc1nc2c(N)nc3cc(Cc4ccccc4)ccc3c2n1CCC(O)C(F)(F)F` (stereo not shown) [Compound 46, 4-(4-amino-7-benzyl-2-(ethoxymethyl)-1H-imidazo[4,5-c]quinolin-1-yl)-1,1,1-trifluorobutan-2-ol], the pEC50 was less than 4.70 in experiment [1] and less than 5.00 in experiment [2].
As for `CCOCc1nc2c(N)nc3cc(Cc4ccc(CCN)cc4)ccc3c2n1CC1(O)CC1` [Compound 47, 1-((4-amino-7-(4-(2-aminoethyl)benzyl)-2-(ethoxymethyl)-1H-imidazo[4,5-c]quinolin-1-yl)methyl)cyclopropan-1-ol], the results for the negative logarithm of the EC50 (pEC50) in experiment [1] and in experiment [2] were less than 4.70 and less than 5.00, respectively.
For the compound `CCCC(C)c1nc2c(N)nc3cc(Cc4ccc(CCN)cc4)ccc3c2n1CC(C)(C)OC` (stereo not shown) [Compound 48, 7-(4-(2-aminoethyl)benzyl)-1-(2-methoxy-2-methylpropyl)-2-(pentan-2-yl)-1H-imidazo[4,5-c]quinolin-4-amine], the results for the negative-log EC50 (pEC50) in experiment [1] and in experiment [2] were 4.70 to 5.30 and less than 5.00, respectively.
For the compound `CCOCc1nc2c(N)nc3cc(Cc4ccc(CCN)cc4)ccc3c2n1C[C@@H]1[C@@H](CO)C1(F)F` [Compound 49, ((1S,3S)-3-((4-amino-7-(4-(2-aminoethyl)benzyl)-2-(ethoxymethyl)-1H-imidazo[4,5-c]quinolin-1-yl)methyl)-2,2-difluorocyclopropyl)methanol], the negative logarithm of the EC50 (pEC50) in experiment [1] is 4.70 to 5.30; in experiment [2], less than 5.00.
In the same order, the values of `CCOCc1nc2c(N)nc3cc(Cc4ccc(CCN)cc4)ccc3c2n1CC(C)(C)OCCO` [Compound 72, 2-((1-(4-amino-7-(4-(2-aminoethyl)benzyl)-2-(ethoxymethyl)-1H-imidazo[4,5-c]quinolin-1-yl)-2-methylpropan-2-yl)oxy)ethan-1-ol] are less than 4.70 and greater than 6.00.
As for `CCOCc1nc2c(N)nc3cc(Cc4ccc(CC(N)=O)cc4)ccc3c2n1CC(C)(C)O` [Compound 73, 2-(4-((4-amino-2-(ethoxymethyl)-1-(2-hydroxy-2-methylpropyl)-1H-imidazo[4,5-c]quinolin-7-yl)methyl)phenyl)acetamide], the pEC50 in experiment [1] was less than 4.70; in experiment [2], greater than 6.00.
For the compound `CCOCc1nc2c(N)nc3cc(Cc4ccc(CNC(=O)CO)s4)ccc3c2n1CC(C)(C)O` [Compound 169], the EC50 in experiment [3] (setting [4]) was greater than 0.64 µM.
Turning to `CCOCc1nc2c(N)nc3cc(Cc4ccccc4)ccc3c2n1CC(C)(C)O` [Compound 171, 1-(4-amino-7-benzyl-2-(ethoxymethyl)-1H-imidazo[4,5-c]quinolin-1-yl)-2-methylpropan-2-ol], in experiment [3] (setting [4]), the 50% effective concentration (EC50) is less than 0.64 µM.
